From patent publication US9000135B2, “Self-reactive arms and prodrugs comprising same” (Centre Nationale de Recherche Scientifique, priority 2010, dated 2015) come the findings set out here.

What all share (assay type): cell-based
Test [1] has as its system HeLa cells, expressing the folic acid receptor (FR). Kind of test: Internalization monitored by confocal microscopy (doxorubicin fluorescence) in HeLa cells. Conditions: 10 μM. The protocol:
(§1) Compound (7) was tested on two cell lines, the HeLa cells, expressing the folic acid receptor (FR), and the A549 cells expressing little or none of these receptors.
(§2) The HeLa and A549 cells were cultured in RPMI 1640 medium supplemented with 10% fetal calf serum (InVitrogen) at 37° C. in an atmosphere containing 5% CO2.
(§3) For confocal microscopy experiments, the cells were cultured in a glass-bottomed bowl.
(§4) The cells were incubated for 1 hour in the presence or absence of 1 μm of folic acid before being treated with either a buffer solution (control), or doxorubicin at 10 μM, or with a doxorubicin-galactose (DOX-GAL) conjugate, compound (5), in a concentration of 10 μM, or compound (7) (DOX-GAL-AF) in a concentration of 10 μM, or compound (7) in the presence of folic acid with respective concentrations of 10 μM.
(§5) After treatment, the cells were rinsed with PBS and fixed with a PBS-3.7% formaldehyde solution for 20 minutes, at room temperature. […]
(§6) The internalization by endocytosis of doxorobucin of the compounds (5) and (7) and of compound (7) in the presence of folic acid (AF) was monitored by confocal microscopy using the fluorescence of doxorubicin in the Hela cells and in the A549 cells.

Test [2] concerns A549 cells expressing little or none of these receptors. Description: Internalization monitored by confocal microscopy (doxorubicin fluorescence) in A549 cells. The note with it: 10 μM. The protocol:
as §1, §2, §3, §4, §5, §6

The test system of another test is Hela cells. Description: Proliferation test (XTT) on Hela cells. The note with it: 0 to 1000 nM, 4 days. How it is done:
(§7) In order to check that the endocytosis of compound (7) DOX-GAL-AF is followed by release of the drug in the intracellular medium, proliferation tests were performed on Hela and A549 cells incubated in the presence of increasing concentrations (0 to 1000 nM) of doxorubicin (DOX), compound (5) (DOX-GAL) and compound (7) (DOX-GAL-AF) for 4 days.
(§8) The cell proliferation kit II (XTT; Roche) was used to evaluate the cellular proliferation. The kit was used following the manufacturer's recommendations.
(§9) In brief, 3×10^3 cells/well were placed on 96 culture plates and then in 100 μl of medium,
(§10) The cells were cultured as previously indicated.
(§11) The cells were cultured for 24 hours before addition of the compounds tested in the indicated concentration.
(§12) After 4 days of treatment, 50 μl of XTT marking mixture were added to the well. The cells were then incubated for 4 hours at 37° C. before the absorbance was determined at 480 nm.
(§13) In order to check that the enzymatic activation of compound (7) DOX-GAF-AF can effectively take place in the cellular environment, cytotoxicity tests were repeated in a culture medium previously supplemented with β-galactosidase (E. coli) (40 U·mL^−1) (curves in dotted lines).
In general terms: Tetrazolium dyes change colour on reduction, which living cells bring about.

The subject of another test is A549 cells. Description: Proliferation test (XTT) on A549 cells. Conditions: 0 to 1000 nM, 4 days. How it is done: as §7, §8, §9, §10, §11, §12, §13

In the case of `C#CCC(OC(=O)NC1CC(O[C@H]2C[C@](O)(C(=O)CO)Cc3c(O)c4c(c(O)c32)C(=O)c2c(OC)cccc2C4=O)OC(C)C1O)c1ccc(O[C@@H]2OC(CO)[C@H](O)C(O)C2O)c([N+](=O)[O-])c1` (some centres unmarked) [Compound 5], the “internalization by endocytosis (fluorescence of doxorubicin, confocal microscopy)” value in test [1] and in test [2] was “not internalized in any of the cell lines” in each case. For the same compound, the “inhibition of proliferation (in words)” value in the test with Hela cells is reported as “ineffective on the two cell lines”. Also, the “toxicity / inhibition of proliferation (in words)” value in the test on A549 cells was “ineffective on the two cell lines”.
In the case of `COc1cccc2c1C(=O)c1c(O)c3c(c(O)c1C2=O)C[C@@](O)(C(=O)CO)C[C@@H]3O[C@H]1C[C@H](N)[C@H](O)[C@H](C)O1` [doxorubicin], the “internalization by endocytosis (fluorescence of doxorubicin, confocal microscopy)” value in test [1] and in test [2] was “penetrates non-specifically through the membranes of the two cell lines” throughout. For the same compound, the “inhibition of proliferation (in words)” value in the test with Hela cells is listed as “inhibits the proliferation of these two lines”. The “toxicity / inhibition of proliferation (in words)” value with A549 cells is listed as “inhibits the proliferation of these two lines”.
